Experiment: Acute oral toxicity (50 % lethal dose) in mice
Conditions: mouse, in vivo, orally administered to mice, read-out: 50 % lethal dose (LD₅₀)
Experimental: Further, the benzothiazepine derivative (I) or a pharmacologically acceptable salt thereof has low toxicity and high safety. For example, when 2-(4-methoxyphenyl)-3-acetoxy-5-[2-(dimethylamino)ethyl]-8-chloro-2,3-dihydro-1,5-benzothiazepin-4(5H)-one·maleate is orally administered to mice, its 50 % lethal dose (LD₅₀) was about 800 mg/kg.

Which LD50 does the source give for COc1ccc([C@@H]2Sc3cc(Cl)ccc3N(CCN(C)C)C(=O)[C@@H]2OC(C)=O)cc1 [(+)-cis-2-(4-methoxyphenyl)-3-acetoxy-5-[2-(dimethylamino)ethyl]-8-chloro-2,3-dihydro-1,5-benzothiazepin-4(5H)-one·maleate] here?
Its LD50 is about 800 mg/kg.
